Laboratory results taken from US20240165123A1, “USE OF A COMPOUND CONTAINING A TRICYCLIC HETEROARYL GROUP” (CSPC Zhongqi Pharmaceutical Technology (Shijiazhuang) Co., …, priority 2021, published 2024).
Like-named read-outs stand apart in the source and are kept apart here.

Test system: MRL/lpr lupus erythematosus model mice
Assay type: in vivo
Design: key to Kidney IHC (IgG) pathological score, bilateral kidneys: product score; 0 negative, 1-3 low, 4-8 medium, 9-12 high
Conditions: for Area under the urine protein curve: 16 weeks; for Kidney HE pathological score of both kidneys, Activity index / Kidney HE pathological score of both kidneys, Chronicity index / Kidney HE pathological score of both kidneys, Tubulointerstitial lesions / Kidney IHC (IgG) pathological score, bilateral kidneys / Skin HE pathological score / Total kidney weight / Total kidney weight/body weight %: after 17 weeks of treatment; for IL-6 concentration in serum (ELISA) / Spleen weight / Spleen weight/body weight % / TNF-alpha concentration in serum (ELISA) / Total lymph node weight / Total lymph node weight/body weight %: end of the test
Protocol: • female MRL/lpr mice aged 4 weeks, number: 50; • female C57BL/6 mice aged 4 weeks, number: 10.
According to the concentration of the serum anti-ds-DNA antibody, female MRL/lpr mice were randomly divided into five groups: model group: solvent (aqueous solution containing 0.4% Tween 80 and 0.5% methylcellulose) 10 mL/kg BID, positive control group: prednisone 6 mg/kg QD, compound (I) 20, 40 and 60 mg/kg BID groups, the administration volumes respectively: 10 mL/kg. In addition, female C57BL/6 mice served as the normal control group. The animals in the Compound (I) group and the model group were administrated with the medicament or the solvent by gavage twice a day starting from the beginning of five weeks of age with an interval of 8 hours between two administrations; prednisone was administered to the animals by gavage once a day from the beginning of five weeks of age; the administration was totally performed for 17 weeks.
Two mice in the model group died at 15 and 16 weeks of administration, respectively, and 8 mice remained at the end of the test; one mouse in the compound (I) 20 mg/kg bid group died in the later period of the 16th week of administration, and 9 mice remained at the end of the test; and no death of mice occurred in other groups.
The skin destructions on the face, ears and back of mice were observed and scored once a week for 17 times totally.
Scoring system: 1) red swelling and bleeding of the skin; 2) the extent of hair loss and skin dryness; 3) edema; 4) excoriation/corrosion; 5) lichenoid sclerotic plaque and other symptoms. The score of each item was as follows: normal=0 points; slight=1 point; moderate=2 points; severe=3 points. The severity of skin destruction was determined according to the total score of each evaluated symptom. […]
The lymph nodes of MRL/lpr mice were scored once a week for a total of 17 times during the test.
According to the lymph node diameter (cm), the score values were 0-6 points: • 0 point: normal; • 1 point: small (the diameter at one location of points on both sides was less than 1 cm); • 2 points: small (the diameters at two location of points on both sides were less than 1 cm); • 3 points: small (the diameters at three location of points on both sides were less than 1 cm); • 4 points: large (the diameter at one location of points on both sides was larger than 1 cm, the diameters at the other two location of points on both sides were less than 1 cm); • 5 points: large (the diameters at two location of points on both sides were larger than 1 cm, and the diameter at the other location of points on both sides was less than 1 cm); • 6 points: large (the diameters at three location of points on both sides were greater than 1 cm). […]
Kidney HE scoring criteria: […]
During the test, the concentration of serum anti-ds-DNA antibody of mice were detected every 4 weeks for 16 weeks.
At the end of the test, the serum cytokine levels of mice were detected by ELISA. […] See Table 25 and FIG. 17 for details.

NC(=O)c1cnc(Nc2ccc3c(c2)OC[C@H]2CN(S(=O)(=O)C4CC4)CCN32)nc1NC1CC1 [Compound (I), (R)-4-(cyclopropylamino)-2-((3-(cyclopropylsulfonyl)-1,2,3,4,4a,5-hexahydrobenzo[b]pyrazolo[1,2-d][1,4]oxazin-8-yl)amino)pyrimidine-5-arboxamide]
Area under the urine protein curve (20 mg/kg BID): 5646.42 ± 587.29 wk*mg/L | Kidney HE pathological score of both kidneys, Activity index (20 mg/kg BID): 5.20 ± 0.73 | Kidney HE pathological score of both kidneys, Chronicity index (20 mg/kg BID): 7.00 ± 0.54 | Kidney HE pathological score of both kidneys, Tubulointerstitial lesions (20 mg/kg BID): 13.50 ± 0.52 | Kidney IHC (IgG) pathological score, bilateral kidneys (20 mg/kg BID): 8.90 ± 0.72 | Skin HE pathological score (20 mg/kg BID): 3.56 ± 0.44 | Total kidney weight (20 mg/kg BID): 0.4146 ± 0.02 g | Total kidney weight/body weight % (20 mg/kg BID): 1.1855 ± 0.05% | IL-6 concentration in serum (ELISA) (20 mg/kg BID): 52.38 ± 5.29 pg/mL | Spleen weight (20 mg/kg BID): 0.4658 ± 0.04 g | Spleen weight/body weight % (20 mg/kg BID): 1.3336 ± 0.11 % | TNF-alpha concentration in serum (ELISA) (20 mg/kg BID): 48.03 ± 4.12 pg/mL | Total lymph node weight (20 mg/kg BID): 1.6823 ± 0.24 g | Total lymph node weight/body weight % (20 mg/kg BID): 4.7396 ± 0.60% | Lymph node score (20 mg/kg BID, week 0): 0.0 ± 0.00 | Skin score (skin destruction) (20 mg/kg BID, week 0): 0.0 ± 0.00 | Skin score (skin destruction) (20 mg/kg BID, week 4): 0.0 ± 0.00 | Lymph node score (20 mg/kg BID, week 6): 0.0 ± 0.00 | Lymph node score (20 mg/kg BID, week 7): 0.6 ± 0.22 | Skin score (skin destruction) (20 mg/kg BID, week 8): 0.0 ± 0.00 | Lymph node score (20 mg/kg BID, week 9): 2.0 ± 0.26 | Lymph node score (20 mg/kg BID, week 11): 2.8 ± 0.29 | Lymph node score (20 mg/kg BID, week 12): 3.0 ± 0.21 | Skin score (skin destruction) (20 mg/kg BID, week 12): 0.0 ± 0.00 | Skin score (skin destruction) (20 mg/kg BID, week 14): 0.2 ± 0.20 | Skin score (skin destruction) (20 mg/kg BID, week 16): 0.2 ± 0.13 | Lymph node score (20 mg/kg BID, week 17): 3.6 ± 0.24 | Skin score (skin destruction) (20 mg/kg BID, week 17): 0.2 ± 0.15 | Area under the urine protein curve (40 mg/kg BID): 3851.50 ± 340.32 wk*mg/L | Kidney HE pathological score of both kidneys, Activity index (40 mg/kg BID): 4.00 ± 0.42 | Kidney HE pathological score of both kidneys, Chronicity index (40 mg/kg BID): 7.60 ± 0.50 | Kidney HE pathological score of both kidneys, Tubulointerstitial lesions (40 mg/kg BID): 12.30 ± 1.03 | Kidney IHC (IgG) pathological score, bilateral kidneys (40 mg/kg BID): 7.40 ± 0.56 | Skin HE pathological score (40 mg/kg BID): 3.60 ± 0.37 | Total kidney weight (40 mg/kg BID): 0.3704 ± 0.01 g | Total kidney weight/body weight % (40 mg/kg BID): 1.0997 ± 0.05% | IL-6 concentration in serum (ELISA) (40 mg/kg BID): 63.17 ± 12.60 pg/mL | Spleen weight (40 mg/kg BID): 0.3184 ± 0.03 g | Spleen weight/body weight % (40 mg/kg BID): 0.9485 ± 0.09 % | TNF-alpha concentration in serum (ELISA) (40 mg/kg BID): 32.29 ± 4.62 pg/mL | Total lymph node weight (40 mg/kg BID): 0.7319 ± 0.12 g | Total lymph node weight/body weight % (40 mg/kg BID): 2.1603 ± 0.35 % | Concentration of serum anti-ds-DNA antibody (40 mg/kg BID, week 0): 3.32 ± 0.39 µg/mL | Lymph node score (40 mg/kg BID, week 0): 0.0 ± 0.00 | Skin score (skin destruction) (40 mg/kg BID, week 0): 0.0 ± 0.00 | Concentration of serum anti-ds-DNA antibody (40 mg/kg BID, week 4): 346.06 ± 35.04 µg/mL | Skin score (skin destruction) (40 mg/kg BID, week 4): 0.0 ± 0.00 | Lymph node score (40 mg/kg BID, week 6): 0.0 ± 0.00 | Lymph node score (40 mg/kg BID, week 7): 0.3 ± 0.15 | Concentration of serum anti-ds-DNA antibody (40 mg/kg BID, week 8): 885.04 ± 96.38 µg/mL | Skin score (skin destruction) (40 mg/kg BID, week 8): 0.0 ± 0.00 | Lymph node score (40 mg/kg BID, week 9): 0.7 ± 0.26 | Lymph node score (40 mg/kg BID, week 11): 0.9 ± 0.23 | Concentration of serum anti-ds-DNA antibody (40 mg/kg BID, week 12): 1390.83 ± 266.11 µg/mL | Lymph node score (40 mg/kg BID, week 12): 1.2 ± 0.25 | Skin score (skin destruction) (40 mg/kg BID, week 12): 0.0 ± 0.00 | Skin score (skin destruction) (40 mg/kg BID, week 14): 0.0 ± 0.00 | Concentration of serum anti-ds-DNA antibody (40 mg/kg BID, week 16): 1198.59 ± 86.64 µg/mL | Skin score (skin destruction) (40 mg/kg BID, week 16): 0.0 ± 0.00 | Lymph node score (40 mg/kg BID, week 17): 1.5 ± 0.34 | Skin score (skin destruction) (40 mg/kg BID, week 17): 0.0 ± 0.00 | Area under the urine protein curve (60 mg/kg BID): 4138.70 ± 1048.57 wk*mg/L | Kidney HE pathological score of both kidneys, Activity index (60 mg/kg BID): 3.90 ± 0.75 | Kidney HE pathological score of both kidneys, Chronicity index (60 mg/kg BID): 6.00 ± 0.75 | Kidney HE pathological score of both kidneys, Tubulointerstitial lesions (60 mg/kg BID): 8.50 ± 0.91 | Kidney IHC (IgG) pathological score, bilateral kidneys (60 mg/kg BID): 6.90 ± 0.28 | Skin HE pathological score (60 mg/kg BID): 2.60 ± 0.37 | Total kidney weight (60 mg/kg BID): 0.3639 ± 0.02 g | Total kidney weight/body weight % (60 mg/kg BID): 1.1424 ± 0.07% | IL-6 concentration in serum (ELISA) (60 mg/kg BID): 35.99 ± 7.36 pg/mL | Spleen weight (60 mg/kg BID): 0.2805 ± 0.03 g | Spleen weight/body weight % (60 mg/kg BID): 0.8892 ± 0.10 % | TNF-alpha concentration in serum (ELISA) (60 mg/kg BID): 30.61 ± 4.72 pg/mL | Total lymph node weight (60 mg/kg BID): 0.5680 ± 0.08 g | Total lymph node weight/body weight % (60 mg/kg BID): 1.7879 ± 0.26 % | Concentration of serum anti-ds-DNA antibody (60 mg/kg BID, week 0): 3.33 ± 0.42 µg/mL | Lymph node score (60 mg/kg BID, week 0): 0.0 ± 0.00 | Skin score (skin destruction) (60 mg/kg BID, week 0): 0.0 ± 0.00 | Concentration of serum anti-ds-DNA antibody (60 mg/kg BID, week 4): 249.26 ± 24.12 µg/mL | Skin score (skin destruction) (60 mg/kg BID, week 4): 0.0 ± 0.00 | Lymph node score (60 mg/kg BID, week 6): 0.0 ± 0.00 | Lymph node score (60 mg/kg BID, week 7): 0.1 ± 0.10 | Concentration of serum anti-ds-DNA antibody (60 mg/kg BID, week 8): 806.75 ± 110.22 µg/mL | Skin score (skin destruction) (60 mg/kg BID, week 8): 0.0 ± 0.00 | Lymph node score (60 mg/kg BID, week 9): 0.3 ± 0.15 | Lymph node score (60 mg/kg BID, week 11): 0.4 ± 0.16 | Concentration of serum anti-ds-DNA antibody (60 mg/kg BID, week 12): 1168.19 ± 113.75 µg/mL | Lymph node score (60 mg/kg BID, week 12): 0.5 ± 0.22 | Skin score (skin destruction) (60 mg/kg BID, week 12): 0.0 ± 0.00 | Skin score (skin destruction) (60 mg/kg BID, week 14): 0.0 ± 0.00 | Concentration of serum anti-ds-DNA antibody (60 mg/kg BID, week 16): 1272.27 ± 50.19 µg/mL | Skin score (skin destruction) (60 mg/kg BID, week 16): 0.0 ± 0.00 | Lymph node score (60 mg/kg BID, week 17): 1.0 ± 0.26 | Skin score (skin destruction) (60 mg/kg BID, week 17): 0.0 ± 0.00 | Mice died during the test (mouse, in vivo): one
